Test results published in paper PMC12040169 (PLOS Biology, 2025).

Test: in vitro
Settings: human, hela cells, % viability

| SMILES | viability at 28.5 h, 10 µM [%] | viability at 28.5 h, 10 µM (bulk resorufin, single well) [%] |
| --- | --- | --- |
| CCN(CC)C(=O)c1ccc(NC(=O)CSc2n[nH]c(=O)n2CC2CCCO2)cc1 (stereo not drawn) [CBK295186] | 77.6 |  |
| COc1ccc(NC(=O)C2CCCN2S(=O)(=O)c2ccc(OC)cc2)cc1 (stereo not drawn) [CBK070001] | 78.1 |  |
| CCN(CC)C(=O)N1CCN(Cc2cccc(OC)c2)C[C@@H]1C [CBK284268] | 78.8 |  |
| O=C(Nc1ccc(Cc2ccc(NC(=O)c3ccccc3F)c(O)c2)cc1O)c1ccccc1F [CBK268366] | 90.4 |  |
| Cc1cc(C)n(CC(=O)NC2CCCOc3c(F)cccc32)n1 (stereo not drawn) [CBK305553] | 106 |  |
| COc1cccc(C2(NC(=O)c3cnsc3)CCCC2)c1 [CBK283611] | 94.9 |  |
| CN1CCCC(NC(=O)CCCOc2ccccc2F)C1 (stereo not drawn) [CBK282072] | 101 |  |
| COc1cc(-c2cc(C(=O)O)c3c(-c4ccc(C)cc4)n[nH]c3n2)ccc1O [CBK287268] | 83.9 |  |
| COc1ccc(C)cc1N(C(=O)c1ccccn1)c1nc2ccccc2s1 [CBK297944] | 97.7 |  |
| CCc1nc2ccc(C(=O)NCCN3CCOCC3)cn2c1N(C=O)Cc1ccc(OC)cc1 [CBK146625] | 97.9 |  |
| CN(C)C(=O)c1cccc(-c2cnc3[nH]c(=O)n(Cc4ccc(Cl)cc4)c3n2)c1 [CBK064553] | 97.5 |  |
| COc1ccc(C(C)C)cc1-c1cc(NCCc2cccnc2)n2nccc2n1 [CBK037097] | 104 |  |
| CCc1nn(CC(=O)NC2CCC2)c(=O)c2cc3sc(C)cc3n12 [CBK284142] | 92.4 |  |
| CCNc1cc(-c2cccc(N)c2)ncn1 [CBK037731] | 96.4 |  |
| O=C(C1CCC1)N1CCC(c2nnc(-c3ccsc3)o2)CC1 [CBK283405] | 104 |  |
| O=S(=O)(c1ccc(F)c(F)c1F)n1ccc2c(N3CCNCC3)nccc21 [CBK059066C] | 106 |  |
| CC(=O)Nc1ccc(Nc2cc(C)nc(-n3nc(C)cc3C)n2)cc1 [CBK287746] | 103 |  |
| Cn1cc(CN2CCCN(C(=O)c3ccc4ccccc4n3)CC2)cn1 [CBK305369] | 102 |  |
| Cc1ccc(C(=O)NC(=S)Nc2ccc(-c3ccc(CO)o3)cc2)cc1[N+](=O)[O-] [CBK269127] | 110 |  |
| Cn1ccnc1C1(O)CCN(C(=O)NCc2ccccc2)CC1 [CBK282276] | 94.9 |  |
| O=C(Nc1cccc2[nH]ccc12)c1ccc2c(c1)OCCO2 [CBK159657] | 85.7 |  |
| COCCN(C(=O)c1cc2cc(C)ccc2s1)C1CCS(=O)(=O)C1 (stereo not drawn) [CBK304289] | 87.3 |  |
| COc1ccc(Cl)cc1N1CCNCC1 [CBK013449C] |  | 89.4 |

| SMILES | viability at 28.5 h, 10 µM [%] | viability at 28.5 h, 10 µM (bulk resorufin, single well) [%] |
| --- | --- | --- |
| Cc1noc(C)c1C(=O)Nc1sc2c(c1C(=O)NCc1ccco1)CCCCCC2 [CBK268112] | 99.3 |  |
| Cc1cc(C)n(CC(=O)N2CCCC2c2cc3cccnc3[nH]2)n1 (stereo not drawn) [CBK285074] | 97.1 |  |
| Cc1sc2nc(C)n(C3CCN(C(=O)C(C)C)CC3)c(=O)c2c1C [CBK282414] | 88.7 |  |
| CN(C)CC(=O)N1CCc2nc(-c3ccccc3F)sc2C1 [CBK281918] | 85.6 |  |
| CCC(=O)Nc1ccc2oc(-c3cccc(C)c3)nc2c1 [CBK263065] | 89.6 |  |
| Cc1ccc(C2(CN3CCN(Cc4ncc[nH]4)CC3)CC2)cc1 [CBK283306] | 95.9 |  |
| O=C(c1nc2ccccc2s1)C1CCNCC1 [CBK285397] | 103 |  |
| O=C(O)CSc1nc2ccccc2n2cnnc12 [CBK269831] | 92.8 |  |
| CC1CCCCN1C(=O)Cn1cnc2c(Cl)cc(Cl)cc2c1=O (stereo not drawn) [CBK306149] | 90.3 |  |
| CCc1nn(Cc2ccncc2)c(=O)c2cc3sc(C)cc3n12 [CBK284140] | 85.7 |  |
| Cc1cc(C)c(NC(=O)CSc2nc(C)c(Cc3ccccc3)c(O)n2)c([N+](=O)[O-])c1 [CBK268715] | 86.8 |  |
| O=c1c2cccnc2ncn1CC(O)COc1ccc(-c2ccccc2)cc1 (stereo not drawn) [CBK296690] | 99.1 |  |
| C=C(C)Cn1c(Cc2c[nH]c3ccccc23)nnc1SCC(C)C [CBK200087T] | 98.6 |  |
| C/C(=N\NC(=O)c1nonc1N)c1ccc(Cl)cc1 [CBK025664] | 107 |  |
| CN1CCN(c2cccc(-c3ccsc3)n2)CC1 [CBK036916] | 90.2 |  |
| Cc1ccc(C(C)C)c(OCC(=O)n2nc(C)cc2C)c1 [CBK058196] | 87.9 |  |
| Cc1nn(CCC#N)c2nc(-c3ccc(F)cc3)cc(C(=O)O)c12 [CBK296974] | 94.7 |  |
| CCN(Cc1ccncc1)C(CC1CCCCC1)c1ccccc1 (stereo not drawn) [CBK061639T] | 97.3 |  |
| CC(C)C(=O)Nc1cc2ccccc2c(-c2ccc(N(C)C)cc2)n1 [CBK085776] | 90.6 |  |
| c1ccc(CN2CCN(c3nccnc3OCCN3CCOCC3)CC2)cc1 [CBK082885T] | 104 |  |
| Cc1ccc(-c2ncc(OCCN(C(C)C)C(C)C)nc2N)cc1C [CBK145150] | 85.9 |  |
| Cc1nnc2c(=O)n(CC(=O)N3CCN(C(C)C)CC3)c3cccnc3n12 [CBK288601] | 94.3 |  |
